The values below come from publication PMC9084902, “Low-Molecular Weight Protamine Overcomes Chondroitin Sulfate Inhibition of Neural Regeneration” (Frontiers in Cell and Developmental Biology, 2022).

For data set [1], the system named is hippocampal neurons. Kind of data set: cell toxicity seen in neuronal morphology / neuronal cells in vitro. Conditions: neuronal systems, Figures 2, 4. The data set is classed as cell-based, Wistar rat. How it is done:
The cortex or hippocampus were obtained from 17 days-old Wistar rat embryos and transferred to ice-cold preparation solution. Neurons were further isolated exactly as described earlier in Sahu’s publication ([Sahu et al., 2019]). Primary rat cortical or hippocampal neurons (E17 Wistar rats) were cultured in 96-well plates at the density of 20000 cells/well in Neurobasal medium supplemented with B27 serum substitute, penicillin, streptomycin and L-glutamate for 2 days in vitro (DIV). The plates were precoated with aggrecan (5 ug/ml, 150 µl/well). Protamine or protamine peptides were added to the culture medium at different concentrations. To analyze the effect of protamine or its fragment on neurite outgrowth, the plates were coated with 10 μg/ml of protamine or LMWP. For the experiment with chondroitinase, the aggrecan-coated plates were treated with chondroitinase ABC (Amsbio AMS. E1028, lot CF0029) for 4 h followed by 2 times washing with PBS before cell plating, and the cell culture imaging was carried out after 3 DIV incubation with 4 uM LMWP added to the medium. Neurite outgrowth was imaged with phase contrast microscopy (Olympus IX70 microscope and Retiga 2000R digital camera) using both x10 and x20 objectives. Processes of neurons over the diameter of the neuronal soma were interpreted as neurites. Neurite length was measured with ImageJ software and averaged from 2 to 3 independent experiments with 1–2 technical replicas in each independent experiment.

The subject of data set [2] is mouse cervical hemisection model. Kind of data set: cylinder test, C5 hemisection, ICV delivery. In kind it is in vivo, C57BL6/NHsd mouse. The following applies: n = 5–10. The procedure: The mouse was placed into the glass cylinder of 13 cm in diameter and 15 cm high. A mirror was positioned at the angle behind the cylinder for better observation. The mouse was videotaped for the first 20 exploratory vertical rearings or for 5 min. The number of rearings in which the mouse used the right (impaired), the left or both limbs for support against the wall was measured. Paw preference was calculated as the ratio of total number of left limb use (left + both) to total number of right (impaired) limb use (right + both). A trial with less than 5 rearings within 5 min was excluded from the analysis.

The subject of data set [3] is mouse cervical hemicontusion model. Kind of data set: frontpaw grip strength, C5 hemicontusion, subcutaneous delivery. The data set is classed as in vivo, C57BL6/NHsd mouse. Conditions: 16 µg s.c. daily 49 days. The procedure:
The effectiveness of systemically delivered LMWP in treatment of spinal cord trauma was tested in the cervical hemicontusion model (Figure 1B). Baseline behavior was assessed 1 week before the trauma surgery, and the results were used for balanced distribution of animals to the 3 experimental groups (“sham”, “trauma + PBS” and “trauma + LMWP”). Each housing cage contained animals from all three groups. Subcutaneous injections to the back area were started on the next day after the trauma and continued daily for 49 days. LMWP was injected subcutaneously at the 16 µg dose in 200 µl of sterile PBS. The groups “sham” and “trauma + PBS” got the same volume of PBS. Behavioral assessment was started 2 weeks after the trauma and finished at the week 12.

For data set [4] the following is noted: cited from earlier work. The source says:
We therefore tested protamine fragments that might be nontoxic but would still retain the ability to overcome the CSPG inhibition. […] This fragment is found in the literature as the low-molecular weight protamine (LMWP) with the capability to penetrate through the cell membranes and to carry drug cargoes to tissues including ...

Where [5] appears, read: ICV LMWP 4 µl of 1 mg/ml daily, 6 days from day 3.

Entries after “also recorded” stand apart in the source; their conditions may differ.

Take “VSRRRRRRGGRRRR [LMWP, low-molecular weight protamine]”: in data set [1], the “toxicity for neuronal cells (summary)” value is “little if any toxicity even at high concentrations”. Further, in data set [2] (setting [5]), the “front paw use asymmetry (injured versus non-injured side)” value is “reduction of front paw use asymmetry at the weeks 2, 4, 8 and 9 after the trauma; also recorded: less asymmetry in frontpaw use when the injured side was compared to the non-injured side”; the ipsilateral paw use result is recorded as “partially improved the ipsilateral paw use”. Besides, in data set [2] (ICV LMWP, week 2 p = 0.4201, week 4 p = 0.2766, week 8 p = 0.1092, week 9 p = 0.1659, PBS group differed from sham at all weeks), the “ipsilateral paw use versus sham” value was “not significantly different from the sham animals”. The “grip strength versus PBS” value in data set [3] (week 6 p = 0.0449, week 9 p = 0.0221, one-way ANOVA with Tukey's) is “significantly increased grip strength parameters on the week 6 and the week 12; also recorded: significant increase of frontpaw grip strength in comparison with the PBS-treated animals on the weeks 6 and 9”. Moreover, the “grip strength versus PBS, week 12” value in data set [3] (week 12 p = 0.0558, one-way ANOVA with Tukey's) is “trend towards increased grip strength on the week 12”. In data set [4], the blood-brain barrier passage result is listed as “reported to pass the blood-brain barrier”; the “cell membrane penetration and cargo delivery to tissues including the brain” value is “capability to penetrate through the cell membranes and to carry drug cargoes to tissues including the brain”. For the same sequence, the “toxicity relative to protamine” value in data set [4] (ref Byun et al., 2000, He et al., 2014, Edwards et al., 2020) is given as “non-toxic substitute of protamine”.
